Measured values from US8207182B2, “Substituted cyclic urea derivatives and the use thereof as vanilloid receptor 1 modulators” (Gruenenthal GmbH, priority 2005, dated 2012).

Molecular target: T1, vanilloid receptor 1 (VR1/TRPV1) (Rattus norvegicus, UniProt O35433)
T1 construct: from tissue; host or cells: primary cells dissociated from rat dorsal root ganglia (DRGs), cultured for two to three days
Assay: Functional investigation on the vanilloid receptor 1 (FLIPR Ca2+ influx assay, capsaicin)
Assay type: cell-based
Conditions: rat dorsal root ganglia cells, Fluo-4 FLIPR, 100 nM capsaicin
Excerpt: I. Functional Investigation on the Vanilloid Receptor 1 (VRI/TRPV1 Receptor)
The agonistic or antagonistic action of the substances to be investigated on the vanilloid receptor 1 (VR1/TRPV1) of the species rat can be determined using the following assay. According to this assay, the Ca^2+ influx through the receptor channel is quantified with the aid of a Ca^2+-sensitive dye (Type Fluo-4, Molecular Probes Europe BV, Leiden Netherlands) in a fluorescent imaging plate reader (FLIPR, Molecular Devices, Sunnyvale, USA).
Complete medium: 50 mL of HAMS F12 Nutrient Mixture (Gibco Invitrogen GmbH, Karlsruhe, Germany) with
10% by volume of FCS (fetal calf serum, Gibco Invitrogen GmbH, Karlsruhe, Germany, heat-inactivated);
2 mM L-glutamine (Sigma, Munich, Germany);
1% by weight of AA solution (antibiotic/antimycotic solution, PAA, Pasching, Austria) and 25 ng/mL of Medium NGF (2.5 S, Gibco Invitrogen GmbH, Karlsruhe, Germany) […]
The DRGs are in each case repeatedly suspended, drawn through No. 1, No. 12 and No. 16 needles by means of a syringe and transferred to 50 mL Falcon tubes and these are filled to 15 mL with complete medium. […] The resulting pellet is in each case taken up in 250 μL of complete medium and the cell count is determined. […]

T1 sequence (O35433 whole entry): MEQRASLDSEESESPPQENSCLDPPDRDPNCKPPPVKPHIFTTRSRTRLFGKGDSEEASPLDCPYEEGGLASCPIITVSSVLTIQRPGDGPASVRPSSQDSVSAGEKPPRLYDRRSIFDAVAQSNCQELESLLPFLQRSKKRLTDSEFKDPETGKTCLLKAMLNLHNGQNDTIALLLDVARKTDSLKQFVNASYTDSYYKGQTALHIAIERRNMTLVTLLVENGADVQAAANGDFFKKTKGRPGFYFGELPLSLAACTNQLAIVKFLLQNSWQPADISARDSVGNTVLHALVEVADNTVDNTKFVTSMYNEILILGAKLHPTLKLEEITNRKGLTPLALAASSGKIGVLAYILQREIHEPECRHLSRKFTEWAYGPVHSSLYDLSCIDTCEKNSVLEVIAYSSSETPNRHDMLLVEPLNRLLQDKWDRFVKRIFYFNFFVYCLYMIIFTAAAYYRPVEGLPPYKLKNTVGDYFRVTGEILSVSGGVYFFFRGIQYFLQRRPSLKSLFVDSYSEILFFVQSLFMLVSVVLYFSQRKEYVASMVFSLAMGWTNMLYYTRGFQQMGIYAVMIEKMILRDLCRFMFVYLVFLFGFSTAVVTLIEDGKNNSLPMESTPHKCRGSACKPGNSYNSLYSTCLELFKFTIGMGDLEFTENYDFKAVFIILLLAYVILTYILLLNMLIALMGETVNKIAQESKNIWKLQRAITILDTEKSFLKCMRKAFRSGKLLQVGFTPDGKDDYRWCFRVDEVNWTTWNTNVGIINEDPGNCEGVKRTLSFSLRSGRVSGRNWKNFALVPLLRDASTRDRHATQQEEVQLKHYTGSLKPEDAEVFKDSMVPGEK

Row | IC50 | SMILES
1 | 9.4 µM | CC(C)(C)c1ccc(CN2CCN(Cc3ccc(NS(C)(=O)=O)cc3)C2=O)cc1 [Example 4, N-{4-[3-(4-tert-butylbenzyl)-2-oxoimidazolidin-1-ylmethyl]-phenyl}methanesulfonamide]
2 | 2.9 µM | CC(C)(C)c1ccc(CN2CCCN(Cc3ccc(NS(C)(=O)=O)cc3)C2=O)cc1 [Example 5, N-{4-[3-(4-tert-butylbenzyl)-2-oxotetrahydropyrimidin-1-ylmethyl]-phenyl}methanesulfonamide]
